From PubChem BioAssay (NCI) come the findings set out here.

The structures appear in SMILES notation. Several values for one entry are separate records, joined by “and”; a condition that tells them apart may be missing. Identical values can stand only once.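 Values below derive from 48-hour exposures of cells grown in 96-well plates, with endpoints linearly interpolated between the two concentrations bracketing the appropriate inhibition level. GI50 = concentration required for 50% inhibition of growth. At the TGI there is no net growth.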 A value given as a limit tells only on which side of the number the result lay.

Some test systems named below: 786-0 renal; HOP-92 NSCLC; HS 578T breast; MALME-3M melanoma; OVCAR-5 ovarian; SF-295 CNS; SK-OV-3 ovarian; SN12C renal; SNB-75 CNS; U251 CNS.
Common to all, as to experiment: NCI tumour cell line growth inhibition, 48 h

As for `CCCCCCN(CCCCCC)CC(O)c1cccc2ccc(Cl)cc12` (stereo not given), the GI50 in the assay on 786-0 renal is 10.9 µM; in the assay on HOP-92 NSCLC, 3.21 µM; in the assay on HS 578T breast it was 8.36 µM; in the assay on MALME-3M melanoma it was 9.43 µM; with OVCAR-5 ovarian, 2.6 µM; in the assay with SF-295 CNS, 6.32 µM. Further, the GI50 is 11.3 µM in the assay on SK-OV-3 ovarian, 10.7 µM in the assay with SN12C renal, 7.43 µM with SNB-75 CNS and 10.5 µM in the assay on U251 CNS. Also, the TGI with 786-0 renal was 23.7 µM; with HOP-92 NSCLC, 19.5 µM; in the assay on HS 578T breast, 26.4 µM; in the assay with MALME-3M melanoma, 22.4 µM; in the assay with OVCAR-5 ovarian it was 13.7 µM; in the assay on SF-295 CNS it was 22.1 µM. Further, the TGI in the assay with SK-OV-3 ovarian amounted to 23.4 µM; in the assay with SN12C renal, 23.6 µM; with SNB-75 CNS, 20.6 µM; in the assay with U251 CNS, 23.5 µM.

As to `CC(=O)N[C@@H]1CCC[C@H](C(=O)Nc2cc(-c3cnn4c3CC(C)(C)C4)c(Cl)cn2)C1`, the GI50 in the assay on 786-0 renal is under 0.01 µM; in the assay with HOP-92 NSCLC, under 0.01 µM; with HS 578T breast it was under 0.01 µM; in the assay on MALME-3M melanoma, 0.0216 µM; in the assay with OVCAR-5 ovarian, under 0.01 µM; in the assay with SF-295 CNS, under 0.0125 µM. Also, the GI50 was 0.0633 µM with SK-OV-3 ovarian, 0.0103 µM in the assay with SN12C renal, under 0.01 µM with SNB-75 CNS and under 0.01 µM in the assay on U251 CNS. Moreover, the TGI in the assay with 786-0 renal was 29.6 µM; in the assay on HOP-92 NSCLC it was 0.0389 µM; in the assay on HS 578T breast it was 20.1 µM; with MALME-3M melanoma it was 0.075 µM; in the assay on OVCAR-5 ovarian, over 100 µM; with SF-295 CNS, over 100 µM. The TGI is over 100 µM in the assay on SK-OV-3 ovarian, over 100 µM with SN12C renal, 0.029 µM in the assay on SNB-75 CNS and over 100 µM in the assay on U251 CNS.

Regarding `COc1cc(OC)cc(N2CCN(C(=O)Nc3nc4cc(F)ccc4nc3OC)CC2)c1`, the GI50 in the assay with 786-0 renal was 0.0487 µM and 0.046 µM and 0.0362 µM; in the assay on HOP-92 NSCLC it was < 0.01 µM and 0.0062 µM; in the assay with HS 578T breast, < 0.01 µM and 0.027 µM and 0.0388 µM; in the assay with MALME-3M melanoma it was 5.45 µM and 12.5 µM; with OVCAR-5 ovarian it was 0.0557 µM and 0.158 µM and 0.0528 µM; in the assay on SF-295 CNS it was < 0.0184 µM and 0.0255 µM. Moreover, the GI50 is 0.0406 µM and 0.0838 µM and 0.033 µM in the assay with SK-OV-3 ovarian; 0.067 µM and 0.0615 µM and 0.0576 µM in the assay on SN12C renal; 0.0197 µM and 0.0243 µM in the assay with SNB-75 CNS; 0.0356 µM and 0.0448 µM and 0.0428 µM in the assay with U251 CNS. Also, the TGI in the assay on 786-0 renal is 31 µM and 22.1 µM; in the assay on HOP-92 NSCLC it was 19.3 µM and 3.83 µM and 6.77 µM; in the assay with HS 578T breast, 33.2 µM and > 100 µM; with MALME-3M melanoma it was 46.8 µM and 44.8 µM; with OVCAR-5 ovarian, over 100 µM; with SF-295 CNS, 20.6 µM. For the same molecule, the TGI with SK-OV-3 ovarian was > 47.8 µM and 17.1 µM; in the assay on SN12C renal, 51.1 µM and 24.5 µM; in the assay on SNB-75 CNS, 56.4 µM and 57.2 µM; in the assay with U251 CNS it was 27.3 µM and 20.2 µM.

With `CN1CC(C(=O)NC2(C)OC3(O)C4CCCN4C(=O)C(Cc4ccccc4)N3C2=O)C=C2c3cccc4[nH]cc(c34)CC21` (stereo not given), the TGI in the assay on 786-0 renal was 45 µM; in the assay on HOP-92 NSCLC, 38.6 µM; with HS 578T breast, 29 µM; in the assay with MALME-3M melanoma, 38.6 µM; with OVCAR-5 ovarian, 44.9 µM; in the assay with SF-295 CNS, 57.1 µM. In addition, the TGI was over 100 µM in the assay with SK-OV-3 ovarian, 43.5 µM in the assay with SN12C renal, over 100 µM in the assay with SNB-75 CNS and 38.2 µM in the assay on U251 CNS.

Regarding `O=[N+]([O-])O.[NH-]C1CCCCC1[NH-].[NH-]C1CCCCC1[NH-].[NH-]C1CCCCC1[NH-].[OH-].[OH-].[OH-].[Pt+4].[Pt+4].[Pt+4]` (stereo not given), the GI50 in the assay with 786-0 renal is 0.0408 µM; with HOP-92 NSCLC, 8.21 µM; in the assay on HS 578T breast, 12.1 µM; in the assay with MALME-3M melanoma it was 0.199 µM; in the assay on OVCAR-5 ovarian, 2.03 µM; in the assay on SF-295 CNS it was 0.971 µM. Also, the GI50 is 19.6 µM in the assay with SK-OV-3 ovarian, 0.126 µM in the assay on SN12C renal, 1.49 µM in the assay on SNB-75 CNS and 0.513 µM with U251 CNS. The TGI with 786-0 renal is 3.19 µM; with HOP-92 NSCLC, over 61.2 µM; with HS 578T breast it was over 61.9 µM; in the assay on MALME-3M melanoma it was 2.7 µM; with OVCAR-5 ovarian, 93.8 µM; with SF-295 CNS, over 66.8 µM. Moreover, the TGI with SK-OV-3 ovarian was over 100 µM; in the assay with SN12C renal, 26.7 µM; in the assay with SNB-75 CNS, 32.6 µM; with U251 CNS it was 38.1 µM.

With `CC(C)C[C@H](NC(=O)[C@@H](O)[C@H](N)Cc1ccccc1)C(=O)O`, the TGI in the assay on 786-0 renal, with HOP-92 NSCLC, in the assay on HS 578T breast, with MALME-3M melanoma, in the assay with OVCAR-5 ovarian and with SF-295 CNS was over 100 µM throughout. The TGI in the assay on SK-OV-3 ovarian, with SN12C renal, with SNB-75 CNS and with U251 CNS was over 100 µM each time.

Regarding `O=C(CN=Cc1cccs1)CSC(c1ccccc1)c1ccccc1`, the GI50 with 786-0 renal was 34 µM; with HOP-92 NSCLC, 20.7 µM; in the assay on HS 578T breast it was 26.1 µM; with MALME-3M melanoma, 19.6 µM; in the assay with OVCAR-5 ovarian, 44.3 µM; in the assay with SF-295 CNS, 35.1 µM. The GI50 is 16.3 µM in the assay with SK-OV-3 ovarian, 19.6 µM in the assay on SN12C renal, 30.5 µM with SNB-75 CNS and 34.5 µM with U251 CNS. In addition, the TGI in the assay with 786-0 renal is over 100 µM; in the assay on HOP-92 NSCLC it was 51.1 µM; with HS 578T breast it was 97 µM; in the assay with MALME-3M melanoma, 49.4 µM; in the assay with OVCAR-5 ovarian, over 100 µM; in the assay with SF-295 CNS, over 100 µM. For the same molecule, the TGI in the assay on SK-OV-3 ovarian is 58.2 µM; in the assay on SN12C renal, 36.1 µM; in the assay on SNB-75 CNS, over 100 µM; in the assay on U251 CNS, over 100 µM.

For the molecule `CCCCCCCCCCCCCCCC(=O)OCC1OC(n2ccc(N)nc2=O)C(O)C1O` (stereo not given), the TGI was over 50.5 µM in the assay with 786-0 renal; over 100 µM in the assay with HOP-92 NSCLC; over 100 µM in the assay with HS 578T breast; over 54.6 µM in the assay on MALME-3M melanoma; over 100 µM with OVCAR-5 ovarian; over 100 µM in the assay on SF-295 CNS. Also, the TGI in the assay with SK-OV-3 ovarian, in the assay on SN12C renal, with SNB-75 CNS and in the assay on U251 CNS was over 100 µM each time.
